In data set [1] the test system is influenza B virus strain (B/Florida/78/2015). The experiment in a line: Cytopathic effect (CPE) assay in MDCK cells, influenza B. It is filed as cell-based. The settings on record: 100 TCID50, CPE assay, CCK-8, read-out: EC50 against the influenza B virus strain (B/Florida/78/2015).
The subject of data set [2] is H3N2 influenza A virus. The experiment in a line: In vivo pharmacodynamics, influenza A virus infection model (lung index, lung viral load). Particulars: H3N2-infected BALB/c mice, x ± s, n = 10; for Lung index: 6 mg/kg oral gavage once daily; for PCR viral load: lung tissue, 6 mg/kg. The procedure: (§1) In this example, the H3N2 influenza A virus and the IBV influenza B virus were used to intranasally infect BALB/c mice to establish an influenza A virus infection model and an influenza B virus infection model. After infection, the compound of Formula I was administered to the mice by oral gavage. Changes in lung index and lung viral load of the mice were observed. Oseltamivir phosphate granules, baloxavir marboxil, T-3 compound and T-4 compound were set as positive controls to evaluate the in vivo efficacy of the compound of Formula I against influenza viruses.
A total of 250 qualified SPF-grade BALB/c mice, weighing 11.9-15.1 g, half male and half female, were randomly divided into 7 groups based on genders and body weights: normal control group, model control group, oseltamivir phosphate granules group (6 mg/kg), baloxavir marboxil group (6 mg/kg), T-3 compound group (6 mg/kg), T-4 compound group (6 mg/kg) and Compound of Formula I group (6 mg/kg). The normal control group, oseltamivir phosphate granules group, baloxavir marboxil group, T-3 compound group (6 mg/kg) and T-4 compound group each included 30 mice, and the model control group and the Compound of Formula I group each included 50 mice. Two hours before the first administration, all mice were lightly anesthetized with ether. Except for the normal control group, all mice were intranasally inoculated with the stock solution of H3N2 influenza A virus (viral titer: 6 log2) at 100 µL per mouse. The normal control group was administrated with an equal volume of phosphate-buffered solution intranasally. Each group of mice was administered the corresponding concentration of the drug solution at 20 mL/kg, once daily for 5 consecutive days. The normal control group and the model control group were administered an equal volume of 0.5% methylcellulose (0.5% MC) by oral gavage. The body weights of the mice in each group were recorded daily. At 24 h and 48 h after administration, 10 mice (half male and half female) were randomly selected from each group and euthanized by cervical dislocation, and their lungs were dissected and weighed to calculate the lung index. The influenza A viral load in the lung tissue of the mice was detected using a real-time quantitative polymerase chain reaction (PCR) method. In the model control group and the Compound of Formula I group, 10 mice were euthanized at 12 h, 24 h, 48 h, 72 h, and 5 days after administration. The left lung was collected to assess the H3N2 influenza A viral load. […]

Data set [3] concerns IBV influenza B virus. The experiment in a line: In vivo pharmacodynamics, influenza B virus infection model (lung index, lung viral load). Particulars: IBV-infected BALB/c mice, x ± s, n = 10; for Lung index: 6 mg/kg oral gavage once daily; for PCR relative quantification: lung tissue, dose printed 18 mg/kg. Also noted: PCR relative quantification: unit not given here. The procedure: as §1
A total of 210 qualified SPF-grade BALB/c mice, weighing 13.0-15.4 g, half male and half female, were randomly divided into 7 groups based on genders and body weights: normal control group, model control group, oseltamivir phosphate granules group (6 mg/kg), baloxavir marboxil group (6 mg/kg), T-3 compound group (6 mg/kg), T-4 compound group (6 mg/kg) and Compound of Formula I group (6 mg/kg), 30 mice per group. Two hours before the first administration, all mice were lightly anesthetized with ether. Except for the normal control group, all mice were intranasally inoculated with the stock solution of IBV influenza B virus (viral titer: 8 log2) at 100 µL per mouse. The normal control group was administrated with an equal volume of phosphate-buffered solution intranasally. Each group of mice was administered the corresponding concentration of the drug solution at 20 mL/kg by oral gavage, once daily for 5 consecutive days. The normal control group and the model control group were administered an equal volume of 0.5% MC. The body weights of the mice in each group were recorded daily. At 24 h and 48 h after administration, 10 mice (half male and half female) were randomly selected from each group and euthanized by cervical dislocation, and their lungs were dissected and weighed to calculate the lung index. The influenza B viral load in the lung tissue of the mice was detected using a relative fluorescence quantitative PCR method. […]

Data set [4] relates to influenza A virus subtype H3N2 strain (A/California/2/2014). The experiment in a line: Cytopathic effect (CPE) assay in MDCK cells, influenza A. It is filed as cell-based. Particulars: for EC50: Influenza A virus, H3N2, MDCK cells, 100 TCID50, CPE assay, CCK-8, read-out: EC50 against the influenza A virus subtype H3N2 strain (A/California/2/2014). (In general: Damage to the host cells serves as the signal in cytopathic effect assays.)

Data set [5] can be described thus: In vitro cytotoxicity, Cell Counting Kit (CCK-8). It is filed as cell-based, canine. The settings on record: dog; MDCK cells, 48 h incubation, CCK-8, OD450nm; read-out: IC50 (cytotoxic effects on MDCK cells). The procedure: The in vitro cytotoxic effects of the test compound (the compound of Formula I) and the positive control drugs (baloxavir marboxil, baloxavir, T-3 compound and T-4 compound) on Madin-Darby canine kidney (MDCK) cells were determined using a Cell Counting Kit (CCK-8). MDCK cells were seeded in 96-well plates and cultured overnight. After different concentrations of the drugs were added, the cells were incubated for 48 h. CCK-8 was then added, and the cells were incubated in the dark for […]. The optical density (OD) at 450 nm (OD450nm) values were measured using a microplate reader, and the half-maximal inhibitory concentration (IC50) of the drugs on the cells was calculated.
(In general: Tetrazolium assays rely on reduction of a dye to a coloured formazan, in cell work by metabolically active cells.)

A short description of data set [6]: Pharmacokinetics after oral gavage of MC suspension, plasma LC-MS/MS. Also noted: species or system SD rats. Particulars: SD, rat, in vivo, 0.9 mg/kg. The procedure:
This example investigated the pharmacokinetics profile of the compound of Formula I administered as a methylcellulose (MC) suspension by oral gavage in rats.
The drug concentration of baloxavir was determined using a validated LC-MS/MS analytical method. Plasma samples were precipitated with acetonitrile, and the supernatant was injected for analysis. A chromatographic column, Waters XBridge C8 2.5 µm 2.1×50 mm Column, was used, and a gradient elution was carried out using a mobile phase of 0.1% formic acid in water and acetonitrile (containing 0.1% formic acid), with a flow rate of 0.60 mL/min. Monitoring was carried out using an electrospray ionization (ESI) source in a positive ion mode with a multiple reaction monitoring (MRM) method. The linear range for baloxavir was 0.1000 to 100.0 ng/mL, with a lower limit of quantification of 0.1000 ng/mL; the linear range for baloxavir marboxil was 0.1000 to 5.000 ng/mL, with a lower limit of quantification of 0.1000 ng/mL; the linear range for the compound of Formula I was 0.1000 to 5.000 ng/mL, with a lower limit of quantification of 0.1000 ng/mL; the linear range for the T-3 compound was 0.1000 to 5.000 ng/mL, with a lower limit of quantification of 0.1000 ng/mL; and the linear range for the T-4 compound was 0.1000 to 5.000 ng/mL, with a lower limit of quantification of 0.1000 ng/mL.
This experiment used the marketed drug baloxavir marboxil and the analogous compounds T-3 and T-4 as references to investigate the differences in single-dose pharmacokinetics characteristics between the compound of Formula I and the above compounds. The dose groups were designed as follows: baloxavir marboxil group, with a medium dose (0.9 mg/kg, calculated as baloxavir), T-3 and T-4 compound groups, with a medium dose (0.9 mg/kg), and Compound of Formula I group, with a medium dose (0.9 mg/kg). Blood samples (approximately 0.2 mL) were collected via the orbital plexus before administration (0 h) and at 5 min, 15 min, 30 min, 1 h, 2 h, 4 h, 6 h, 8 h, 12 h, and 24 h after administration. Plasma was separated by centrifugation at 1700 g for 10 min, and plasma drug concentrations were determined by the LC-MS/MS method. Measured concentration values below 80% of the lower limit of quantification of the analyzed subject were considered not detected (counted as zero) or below the limit of quantification (counted as ND); values before the peak concentration Cmax were counted as zero, and values after the peak concentration were counted as ND. Pharmacokinetics parameters were calculated using Phoenix WinNonlin 8.0 software.
The main pharmacokinetics parameter experiment results are as follows: The primary pharmacokinetics parameters after the administration of different doses of a suspension of the compound of Formula I to SD rats by oral gavage are shown in Table 5 below.

A word on the IC50: it is the concentration that inhibits the measured activity by half. Consider `[2H]C([2H])([2H])C([2H])([2H])OC(=O)OCOc1c2n(ccc1=O)N([C@@H]1c3ccccc3SCc3c1ccc(F)c3F)[C@@H]1COCCN1C2=O` [Compound of Formula I, [[(12aR)-12-[(11S)-7,8-difluoro-6,11-dihydrodibenzo[b,e]thiepin-11-yl]-6,8-dioxo-3,4,6,8,12,12 a-hexahydro-1H-[1,4]oxazino[3,4-c]pyrido[2,1-f][1,2,4]triazin-7-yl]oxy]methyl (ethyl-d5) carbonate], for which the EC50 in data set [1] amounted to 8.15 nM. In addition, in data set [2] (24 h after administration), the Lung index is given as 8.67 ± 0.51^×× mg/g and the PCR viral load was 1308927 ± 1042821^×× copies. Besides, in data set [2] (48 h after administration), the Lung index is reported as 9.00 ± 0.57^× mg/g and the PCR viral load is on record as 193017 ± 192655^×× copies. In data set [3] (24 h after administration), the Lung index amounted to 12.01 ± 1.09 mg/g and the PCR relative quantification is listed as 1416.57 ± 1122.12. Moreover, in data set [3] (48 h after administration), the Lung index is on record as 9.79 ± 0.90^×× mg/g and the PCR relative quantification came out at 1206.66 ± 1034.87. The EC50 in data set [4] was determined as 5.02 nM. In addition, the “protection against influenza virus-induced cell damage” value in data set [4] (concentration of 250 nM, influenza virus, strain not specified) was “significant protection”. In addition, the IC50 at 48 h in data set [5] came out at 17400 nM. In addition, in data set [6], the “AUC 0-t” value is given as 203.1047 ± 21.4237 (10.55%) ng·h/mL; the “AUC 0-∞” value is recorded as 207.7670 ± 25.0910 (12.08%) ng·h/mL; the Cmax is 31.7780 ± 2.4334 (7.66%) ng/mL; the Tmax is recorded as 1.0000 (0.500, 2.000) h.
Consider `O=C1c2c(O)c(=O)ccn2N([C@@H]2c3ccccc3SCc3c2ccc(F)c3F)[C@@H]2COCCN12` [baloxavir], for which the EC50 came to 2.06 nM in data set [1] and 1.31 nM in data set [4]. Further, the IC50 at 48 h in data set [5] was 10400 nM.
In the case of `COC(=O)OCOc1c2n(ccc1=O)N([C@@H]1c3ccccc3SCc3c1ccc(F)c3F)[C@@H]1COCCN1C2=O` [baloxavir marboxil], the EC50 in data set [1] is 15.4 nM. Also, in data set [2] (24 h after administration), the Lung index came to 9.53 ± 0.80 mg/g and the PCR viral load is given as 1919953 ± 784647^×× copies. In addition, in data set [2] (48 h after administration), the Lung index was found to be 9.11 ± 0.96 mg/g and the PCR viral load turned out to be 320599 ± 202529 copies. This molecule also showed a Lung index in data set [3] (24 h after administration) of 11.64 ± 1.06 mg/g. Besides, the Lung index in data set [3] (48 h after administration) is on record as 11.45 ± 0.66^× mg/g. Moreover, the EC50 in data set [4] worked out at 13.4 nM. The IC50 at 48 h in data set [5] was found to be 11600 nM. In data set [6], the “AUC 0-t” value is 157.8227 ± 56.5111 (35.81%) ng·h/mL; the “AUC 0-∞” value was 160.9111 ± 57.8613 (35.96%) ng·h/mL; the Cmax is 23.1900 ± 7.9729 (34.38%) ng/mL; the Tmax is listed as 1.0000 (0.250, 2.000) h.

Values taken from patent EP4696693A1, “HEXAHYDRO[1,4]OXAZINO[3,4-C]PYRIDO[2,1-F][1,2,4]TRIAZINE DEUTERATED DERIVATIVE, PHARMACEUTICAL COMPOSITION THEREOF, PREPARATION METHOD THEREFOR, AND ANTI-INFLUENZA USE THEREOF” (Changsha Jingyi Pharmaceutical Technology Co., Ltd, priority 2023, dated 2024).
